These results are taken from ChEMBL document CHEMBL1201862, “PubChem BioAssay data set” (2004).

Among the test systems are HOP-18; KM-20L2; M19-MEL; LXFL 529; XF498; SNB-78; DMS-114; DLD-1; RXF 631.
Holding throughout (assay): NCI tumour cell line growth inhibition, 48 h

The structures appear in SMILES notation.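 Values below derive from 48-hour exposures of cells grown in 96-well plates, with endpoints linearly interpolated between the two concentrations bracketing the appropriate inhibition level. Abbreviation: GI50, concentration required for 50% inhibition of growth.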 Activity calls are given as the source filed them. Cut-off read from the data, not from the text of the source: active = GI50 up to about 1.1 µM and inactive = higher.

On to `NC1CCCCC1.O=C(O)C(CP(=O)(O)O)=C(Cl)Cl`, for which the GI50 in the experiment with HOP-18, in the experiment with KM-20L2, with M19-MEL, with LXFL 529, in the experiment on XF498 and with SNB-78 was > 100 µM (inactive) in each case.

Consider `Cc1c(C(=O)C/C(=N\O)C(=O)Nc2cc(Cl)c(Cl)cc2Cl)[n+]([O-])c2ccccc2[n+]1[O-]`, for which the GI50 in the experiment on DMS-114 is 4.37 µM (inactive); in the experiment with DLD-1 it was 22 µM (inactive); in the experiment on HOP-18, 20.7 µM (inactive); in the experiment on KM-20L2 it was 15.9 µM (inactive); with M19-MEL, 2.2 µM (inactive); with LXFL 529, 15 µM (inactive). Also, the GI50 with XF498 was 25.9 µM (inactive); in the experiment with SNB-78, 41.3 µM (inactive).

Consider `COc1cc2ccnc([C@@H](OC(=O)c3ccccc3)c3ccc(OC)c(OC)c3OC)c2cc1OC`, for which the GI50 with DMS-114 was 33.1 µM (inactive); with DLD-1 it was 27.9 µM (inactive); in the experiment on HOP-18, > 100 µM (inactive); with RXF 631, 50 µM (inactive); in the experiment with KM-20L2, 32.3 µM (inactive); with M19-MEL, 73.6 µM (inactive). Also, the values for the GI50 with LXFL 529 and in the experiment on SNB-78 were 30.8 µM (inactive) and 50.5 µM (inactive), respectively.

Turning to `OCCSCC/C(=N\N=C(/CCSCCO)c1ccccc1)c1ccccc1`, the GI50 was > 100 µM (inactive) with DMS-114; > 100 µM (inactive) in the experiment on DLD-1; > 100 µM (inactive) with HOP-18; 65.8 µM (inactive) in the experiment on RXF 631; 49.9 µM (inactive) in the experiment with KM-20L2; > 100 µM (inactive) in the experiment on M19-MEL. For the same compound, the GI50 is 82 µM (inactive) with LXFL 529, 69.2 µM (inactive) with XF498 and > 100 µM (inactive) with SNB-78.

For `C/C=C(/C)C(=O)O[C@H]1[C@H](O)CC(c2ccc3c(c2O)C(=O)C2=C(O)C4(OC)C(=O)C(C(N)=O)=C(O)[C@H](CC(=O)c5ccccc5O)C4CC2[C@@]3(C)OC)O[C@@H]1C` (stereo partly drawn), the GI50 in the experiment on DMS-114, with DLD-1, in the experiment on HOP-18, with KM-20L2, in the experiment on M19-MEL and in the experiment with LXFL 529 was 0.01 µM (active) each time.

On to `COC(=O)/C(C#N)=C1\CCC(O)N1` (stereo not drawn), for which the GI50 in the experiment on DMS-114, in the experiment on DLD-1, in the experiment on HOP-18, in the experiment with KM-20L2, in the experiment with M19-MEL and in the experiment on LXFL 529 was > 100 µM (inactive) throughout. Moreover, the GI50 in the experiment on XF498 and in the experiment with SNB-78 was > 100 µM (inactive) throughout.

Regarding `CN(CCc1ccccn1)c1nc(=[N+](C)C)ss1`, the GI50 was > 100 µM (inactive) with DMS-114; > 100 µM (inactive) with DLD-1; > 100 µM (inactive) in the experiment on HOP-18; > 100 µM (inactive) in the experiment with RXF 631; > 100 µM (inactive) in the experiment on KM-20L2; 78.5 µM (inactive) with M19-MEL. Moreover, the figures for the GI50 in the experiment with LXFL 529, in the experiment with XF498 and in the experiment with SNB-78 were 72.9 µM (inactive), > 100 µM (inactive) and > 100 µM (inactive), respectively.

In the case of `C=CCN1C(=O)C(=O)N(CC=C)C(=O)C1=O`, the GI50 in the experiment on DMS-114, in the experiment on DLD-1, with KM-20L2, in the experiment with M19-MEL, with LXFL 529 and in the experiment with XF498 was > 100 µM (inactive) in each case. Also, the GI50 in the experiment with SNB-78 is > 100 µM (inactive).

On to `CCNC(=O)/C(=C/c1ccc(OC)cc1)c1cc(OC)c(OC)c(OC)c1`, for which the GI50 with DMS-114 was 11.7 µM (inactive); with DLD-1 it was 14.7 µM (inactive); with HOP-18 it was > 100 µM (inactive); in the experiment on RXF 631, 32.5 µM (inactive); in the experiment with KM-20L2 it was 3.91 µM (inactive); in the experiment on M19-MEL, 14.8 µM (inactive). Besides, the results for the GI50 in the experiment with LXFL 529, with XF498 and in the experiment with SNB-78 were 24.2 µM (inactive), 17.3 µM (inactive) and 23.1 µM (inactive), respectively.

Regarding `O=C(NC(=S)Nc1ccccc1)c1ccc([N+](=O)[O-])cc1`, the GI50 in the experiment with DMS-114 was 17.5 µM (inactive); with DLD-1 it was 47.9 µM (inactive); in the experiment on HOP-18 it was > 100 µM (inactive); in the experiment with KM-20L2, > 100 µM (inactive); in the experiment with M19-MEL, > 100 µM (inactive); in the experiment on LXFL 529, > 100 µM (inactive). Also, the GI50 in the experiment on XF498 and with SNB-78 was > 100 µM (inactive) in each case.

`N=C(N)Cn1cnc2ccccc21`: the GI50 with DMS-114, in the experiment with HOP-18, with KM-20L2, with M19-MEL, with LXFL 529 and in the experiment on SNB-78 was > 100 µM (inactive) throughout.

On to `COc1cc(C(C)c2cc3c(cc2OCCN)OCO3)cc(OC)c1OC` (stereo not drawn), for which the GI50 is 52 µM (inactive) with DMS-114; 36 µM (inactive) in the experiment on DLD-1; > 100 µM (inactive) with RXF 631; 28.8 µM (inactive) with KM-20L2; 39.8 µM (inactive) with M19-MEL; 75.5 µM (inactive) in the experiment on LXFL 529.

Regarding `CN(C)CCC[N+]1=Nc2cccc3cccc(c23)N1`, the GI50 in the experiment on DMS-114 was 60.3 µM (inactive); with DLD-1, 17.5 µM (inactive); with HOP-18, > 100 µM (inactive); in the experiment with RXF 631, > 100 µM (inactive); in the experiment with KM-20L2, 23.7 µM (inactive); in the experiment with M19-MEL, 48.2 µM (inactive). Besides, the results for the GI50 in the experiment on LXFL 529, in the experiment with XF498 and in the experiment with SNB-78 were 49.8 µM (inactive), > 100 µM (inactive) and > 100 µM (inactive), respectively.

Turning to `COc1ccc(C2[C@@H](Cl)C(=O)N2c2ccc(OC)cc2)cc1` (stereo partly drawn), the GI50 in the experiment with DMS-114 was 53 µM (inactive); in the experiment with DLD-1, 89.5 µM (inactive); with M19-MEL, 50.5 µM (inactive); in the experiment with LXFL 529, 62.8 µM (inactive); in the experiment with SNB-78, > 100 µM (inactive).

For `CCCCCCCCCC[C@@H](O)[C@@H]1CC[C@H]([C@H]2CC[C@@H]([C@@H](O)CCCCCCCCCC[C@H]3CC(CC(C)=O)C(=O)O3)O2)O1` (stereo partly drawn), the GI50 in the experiment with DMS-114 was < 0.01 µM (active); with DLD-1, 16.6 µM (inactive); in the experiment on RXF 631, 8.91 µM (inactive); with KM-20L2 it was 14.6 µM (inactive); in the experiment with M19-MEL, 13.9 µM (inactive); with LXFL 529, 3.3 µM (inactive). For the same compound, the GI50 with SNB-78 was 10.9 µM (inactive).

For `COc1ccc(N2C(=O)C3c4[nH]c5ccc(OC)cc5c4C4CCC(C(C)(C)C)CC4C3C2=O)cc1` (stereo not drawn), the GI50 was 34.4 µM (inactive) in the experiment with DMS-114; 64.7 µM (inactive) in the experiment with DLD-1; 44.1 µM (inactive) with HOP-18; 86.9 µM (inactive) in the experiment on KM-20L2; 48.5 µM (inactive) with M19-MEL; 17.6 µM (inactive) in the experiment with LXFL 529. Besides, the GI50 was 56.2 µM (inactive) in the experiment with XF498 and 3.86 µM (inactive) in the experiment on SNB-78.

Consider `O=C(O)C1CCC(=O)N1C(=O)C(Cl)c1ccccc1` (stereo not drawn), for which the GI50 in the experiment with DMS-114, with DLD-1, with HOP-18, with RXF 631, with KM-20L2 and in the experiment on M19-MEL was > 100 µM (inactive) throughout. Further, the GI50 in the experiment with LXFL 529, in the experiment with XF498 and with SNB-78 was > 100 µM (inactive) throughout.

In the case of `Cc1c2c(ccc3ccccc32)c[n+]2ccccc12`, the GI50 with DMS-114 is 3.24 µM (inactive); with DLD-1 it was 9.75 µM (inactive); with KM-20L2, 12.6 µM (inactive); with LXFL 529, 5.09 µM (inactive).

For the compound `N=c1c2ccccc2sc2nc3ccccc3n12`, the GI50 was > 100 µM (inactive) with DMS-114; > 100 µM (inactive) in the experiment with DLD-1; > 100 µM (inactive) with HOP-18; > 100 µM (inactive) with M19-MEL; > 100 µM (inactive) in the experiment on LXFL 529; 85.1 µM (inactive) in the experiment with XF498. For the same compound, the GI50 with SNB-78 is > 100 µM (inactive).

On to `CC(SC(=S)Nc1cccc(F)c1)C(=O)O` (stereo not drawn), for which the GI50 in the experiment on DMS-114 was 15.1 µM (inactive); with KM-20L2, 26.4 µM (inactive); in the experiment with LXFL 529 it was 17.9 µM (inactive); in the experiment with SNB-78 it was 38.9 µM (inactive).

Consider `CC/N=C(/C#N)NCC`, for which the GI50 is 37.6 µM (inactive) in the experiment with DMS-114; > 100 µM (inactive) in the experiment with DLD-1; > 100 µM (inactive) in the experiment with HOP-18; > 100 µM (inactive) in the experiment with KM-20L2; > 100 µM (inactive) with M19-MEL; > 100 µM (inactive) in the experiment with LXFL 529. For the same compound, the GI50 in the experiment on XF498 and in the experiment on SNB-78 was > 100 µM (inactive) in each case.

`COc1ccc(C(=O)Nc2ccccc2C#N)cc1`: the GI50 with DLD-1, in the experiment with HOP-18, in the experiment with KM-20L2, with M19-MEL, with XF498 and in the experiment with SNB-78 was > 100 µM (inactive) each time.

As to `Cc1nnc2n1N=C(CC(=O)c1ccc(O)cc1O)CN2N`, the GI50 in the experiment on DMS-114 is 19.6 µM (inactive); in the experiment with DLD-1, > 100 µM (inactive); in the experiment on RXF 631, > 100 µM (inactive); in the experiment with KM-20L2, > 100 µM (inactive); in the experiment on M19-MEL, 91.4 µM (inactive); in the experiment with LXFL 529, > 100 µM (inactive). In addition, the GI50 in the experiment with SNB-78 was > 100 µM (inactive).

`CCOC(=O)C1=C(N)N(c2ccccc2)/C(=C2\SC(=S)N(c3ccc(C)cc3)C2=O)S1`: the GI50 in the experiment with HOP-18 was 45.2 µM (inactive); in the experiment with M19-MEL, > 100 µM (inactive); with LXFL 529 it was 59.2 µM (inactive).

Regarding `Cn1c(C2CCCc3c2c2ccccc2n3C)cc2ccccc21` (stereo not drawn), the GI50 in the experiment on DMS-114 is 34.3 µM (inactive); with DLD-1, 126 µM (inactive); with HOP-18, 8.02 µM (inactive); in the experiment on RXF 631 it was 126 µM (inactive); in the experiment with KM-20L2, 179 µM (inactive); in the experiment on M19-MEL, 85.5 µM (inactive). In addition, the GI50 in the experiment on LXFL 529 is 121 µM (inactive).

Consider `Nc1ccc2n[se]nc2c1`, for which the GI50 in the experiment with DMS-114, with DLD-1, in the experiment with HOP-18, in the experiment with RXF 631, with KM-20L2 and in the experiment on M19-MEL was > 100 µM (inactive) each time. The GI50 in the experiment with LXFL 529, in the experiment with XF498 and with SNB-78 was > 100 µM (inactive) each time.
